Tests used:
[1] = test system: HCT-116; assay: Western blot analysis; assay type: cell-based, human; conditions: 100 ng/mL and 250 ng/mL IFN-γ
Procedure: (§1) Pyroptosis assay. Recombinant Human TNF-α (Cat #300-01A, PeproTech, Rocky Hill, NJ, USA) and Recombinant Human IFN-γ (Cat #300-02, PeproTech, Rocky Hill, NJ, USA) were purchased for use in western blot analysis while rhTRAIL was generated in-house. See Kim et al., J. Biol. Chem., 279, 40044-40052 (2004).
(§2) Western blot analysis. Cells were plated in a 6-well plate and incubated overnight before the spent media was replaced with drugged media. Drug treatment lasted for indicated durations. Protein was extracted using radioimmunoprecipitation (RIPA) assay buffer (Cat #R0278, Sigma-Aldrich, St. Louis, MO, USA) containing cOmplete™, Mini, EDTA-free Protease Inhibitor Cocktail (Cat #4693159001, Roche, Basel, Switzerland) from sub-confluent cells. Denaturing sample buffer was added, samples were boiled at 95° C. for ten minutes, and an equal amount of protein lysate was electrophoresed through NuPAGE™ 4 to 12%, bis-Tris, 1.5 mm, Mini Protein Gels (Invitrogen, Waltham, MA, USA) then transferred to PVDF membranes. The PVDF membrane was blocked with 5% non-fat milk (Sigma-Aldrich, St. Louis, MO, USA) in 1× TTBS. Primary antibodies were incubated with the transferred PVDF membrane in blocking buffer at 4° C. overnight. Secondary antibodies included Goat anti-Rabbit IgG (H+L) Secondary Antibody, HRP (Cat #31460, Invitrogen, Waltham, MA, USA), and Goat anti-Mouse IgG (H+L) Secondary Antibody, HRP (Cat #31430, Invitrogen, Waltham, MA, USA). The signal was detected using Pierce™ ECL Western Blotting Substrate (Cat #32106, Thermo Scientific, Waltham, MA, USA) and a Syngene Imaging System (RRID: SCR_015770).
(§3) Elraglusib uprequlates tumor cell PD-L1 and proapoptotic pathway expression as well as downregulates immunosuppressive/angiogenic protein expression and pro-survival pathways. The inventors performed Western blot analyses on colorectal cancer cells (HCT-116, HT-29) treated with elraglusib over a 72-hour time course. […] The inventors observed increases in PD-L1 expression as the treatment duration increased. To further elucidate the elraglusib-mediated effects on tumor cell survival, the inventors probed for survival factors Bcl-2 and Survivin and noted decreases in protein expression in both cell lines, especially at the later timepoints (forty-eight hours, seventy-two hours). […] HCT116 cells are heterozygous for β-catenin, harboring one wild-type allele and one mutant allele with inactivation of one of the residues phosphorylated by GSK-3β that is frequently mutated in tumors. Kaler, Augenlicht, & Klampfer, PLoS ONE, 7, e45462 (2012). HT-29, KM12C, and SW480 cells harbor APC mutations. Rowan et al., Proc. Natl. Acad. Sci. USA, 97, 3352 (2000).

[2] = test system: HT-29; assay: Western blot analysis; assay type: cell-based, human; conditions: 100 ng/mL and 250 ng/mL IFN-γ
Procedure: as §1, §2, §3

Question: Which results are given for “IFN-γ: Recombinant Human IFN-γ (PeproTech) used in western blot analysis”?
Answer: gasdermin B expression [1]: increase; gasdermin B expression [2]: increase

Source: patent publication US20240041830A1, “CIRCULATING BIOMARKERS OF RESPONSE TO PD-1/PD-L1 BLOCKADE AND GSK-3 INHIBITION” (Brown University, priority 2022, published 2024)
